Reference: patent US20210403485A1, “PYRAZOLOPYRIMIDINE DERIVATIVE AS SELECTIVE TRK INHIBITOR” (SHANDONG LUYE PHARMACEUTICAL CO., LTD., priority 2018, published 2021)
Where two headings read alike, the source gives them in different places.

Assays:
[1] = Pharmacokinetic test of compounds in rats (plasma, LC/MS/MS); format: in vivo, male SD rats
Method: (§1) Experimental purpose: male SD rats aged 7-9 weeks were selected as test animals, and the drug concentrations of the compounds in plasma at different time points after single intravenous injection (IV) and intragastric administration (PO) of the compounds were measured by an LC/MS/MS method, so that the pharmacokinetic behavior of the compounds disclosed herein in rats was studied, and the pharmacokinetic characteristic of the compounds was evaluated.
(§2) Drug preparation: the compounds were all prepared into clear solution by taking 5% DMSO+10% solutol+85% water as vehicle, and were used for administration in IV and PO groups. The dose of each compound administered was: IV, 3 mg/kg; PO, 10 mg/kg.

[2] = Pharmacokinetic test of compounds in mice (plasma, LC/MS/MS); format: in vivo, male CD-1 mice; conditions: for Cmax: read-out: Peak concentration Cmax; for AUC(0-t): read-out: Area under the curve AUC0-last
Method: as §1, with “CD-1 mice” for “SD rats”, “mice” for “rats”
as §2

TrkA = target: T1, TrkA (Homo sapiens, UniProt P04629); test: Kinase inhibitory activity (33P-ATP, filtration-binding method, Reaction Biology Corp.); format: biochemical; conditions: read-out: Half maximal inhibitory concentration IC50 for kinases, TrkA
T1 construct: purchased Reaction Biology Corp
Method: (§3) The mixture was incubated at room temperature for 20 minutes, added with ^33P-ATP at a certain concentration to start the reaction, and then incubated at room temperature for 120 minutes. Finally, the radioactivity of the reactant was detected by the filtration-binding method. The final kinase activity was expressed as the ratio of the remaining kinase activity in the test sample to the kinase activity of the DMSO control. The dose-response curves were fitted and IC50 values were calculated by GraphPad software.

TrkC = target: T2, TrkC (Homo sapiens, UniProt Q16288); test: as above; format: biochemical; conditions: read-out: Half maximal inhibitory concentration IC50 for kinases, TrkC
T2 construct: purchased Reaction Biology Corp
Method: as §3

ALK = target: T3, ALK (Homo sapiens, UniProt Q9UM73); test: as above; format: biochemical; conditions: read-out: Half maximal inhibitory concentration IC50 for kinases, ALK
T3 construct: purchased Reaction Biology Corp
Method: as §3

TrkA-G595R = target: T4, TrkA-G595R (Homo sapiens, UniProt P04629, G595R); test: as above; format: biochemical; conditions: read-out: Half maximal inhibitory concentration IC50 for kinases, TrkA-G595R
T4 construct: purchased Reaction Biology Corp
Method: as §3

Ros1 = target: T5, Ros1 (Homo sapiens, UniProt P08922); test: as above; format: biochemical; conditions: read-out: Half maximal inhibitory concentration IC50 for kinases, Ros1
T5 construct: purchased Reaction Biology Corp
Method: as §3

TrkA-G667C = target: T6, TrkA-G667C (Homo sapiens, UniProt P04629, G667C); test: as above; format: biochemical; conditions: read-out: Half maximal inhibitory concentration IC50 for kinases, TrkA-G667C
T6 construct: purchased Reaction Biology Corp
Method: as §3

BaF3 LMNA-NTRK1-G667A = target: T7, BaF3 LMNA-NTRK1-G667A (Homo sapiens, UniProt P04629, G667A, cells depend on it); test: Inhibitory activity against cell proliferation (CellTiter-Glo, 72 hours); format: cell-based; conditions: read-out: Half maximal inhibitory concentration IC50 of cells, BaF3 LMNA-NTRK1-G667A
T7 construct: fused on or other part: N-terminal part of LMNA as fusion partner (part of the key); P02545 (Prelamin-A/C)
Method: (§4) Adenosine Triphosphate (ATP) is an energy carrier commonly used in various life activities in nature, and is the minimum unit for energy storage and transfer. The CellTiter-Glo™ cell viability assay kit uses luciferase as an assay agent, which requires the involvement of ATP in luminescence. The CellTiter-Glo™ reagent is added into cell culture medium to measure the luminescence value. The luminescence signal is directly proportional to the amount of ATP in the system, and the ATP is positively correlated with the number of viable cells. Therefore, the proliferation of cells can be detected by detecting the ATP content using the CellTiter-Glo kit.
(§5) a) Cells in the logarithmic growth phase were collected and counted using a […]. The cell viability was detected by the trypan blue exclusion method, and the cell viability was kept over 90%.
(§6) b) The cell concentration was adjusted; 90 μL of the cell suspension was added to a 96-well plate.
(§7) a) A 10-fold compound solution was prepared, with the highest concentration being 10 μM (a total of 9 concentrations, 3-fold dilution). 10 μL of compound solution was added to each well of a 96-well plate inoculated with cells, and three duplicate wells were set for each compound concentration.
(§8) a) The CTG reagent was thawed and the cell plate was equilibrated to room temperature for 30 minutes.
(§9) b) An equal volume of CTG solution was added to each well.
(§10) c) The plate was shaken on an orbital shaker for 5 minutes to lyse the cells.
(§11) d) The cell plate was placed at room temperature for 20 minutes to stabilize the luminescence signal.
(§12) e) The luminescence value was read.
(§13) The data were analyzed using GraphPad Prism 5.0 software, fitted with nonlinear S-curve regression to give dose-response curves, and IC50 values were calculated therefrom.

BaF3 ETV6-NTRK3-WT = target: T8, BaF3 ETV6-NTRK3-WT (Homo sapiens, UniProt Q16288); test: as above; format: cell-based; conditions: read-out: Half maximal inhibitory concentration IC50 of cells, BaF3 ETV6-NTRK3-WT
T8 construct: fused on or other part: N-terminal part of ETV6 (TEL) as fusion partner (part of the key); P41212 (Transcription factor ETV6)
Method: as §4, §5, §6, §7, §8, §9, §10, §11, §12, §13

Ba/F3 LMNA-NTRK1-WT = target: T9, Ba/F3 LMNA-NTRK1-WT (Homo sapiens, UniProt P04629); test: as above; format: cell-based; conditions: read-out: Half maximal inhibitory concentration IC50 of cells, Ba/F3 LMNA-NTRK1-WT
T9 construct: fused on or other part: N-terminal part of LMNA as fusion partner (part of the key); P02545 (Prelamin-A/C)
Method: as §4, §5, §6, §7, §8, §9, §10, §11, §12, §13

BaF3 LMNA-NTRK1-G595R = target: T10, BaF3 LMNA-NTRK1-G595R (Homo sapiens, UniProt P04629, G595R, cells depend on it); test: as above; format: cell-based; conditions: read-out: Half maximal inhibitory concentration IC50 of cells, BaF3 LMNA-NTRK1-G595R
T10 construct: fused on or other part: N-terminal part of LMNA as fusion partner (part of the key); P02545 (Prelamin-A/C)
Method: as §4, §5, §6, §7, §8, §9, §10, §11, §12, §13

Ba/F3 LMNA-NTRK1-F589L = target: T11, Ba/F3 LMNA-NTRK1-F589L (Homo sapiens, UniProt P04629, F589L, cells depend on it); test: as above; format: cell-based; conditions: read-out: Half maximal inhibitory concentration IC50 of cells, Ba/F3 LMNA-NTRK1-F589L
T11 construct: fused on or other part: N-terminal part of LMNA as fusion partner (part of the key); P02545 (Prelamin-A/C)
Method: as §4, §5, §6, §7, §8, §9, §10, §11, §12, §13

BaF3 ETV6-NTRK3-G623R = target: T12, BaF3 ETV6-NTRK3-G623R (Homo sapiens, UniProt Q16288, G623R, cells depend on it); test: as above; format: cell-based; conditions: read-out: Half maximal inhibitory concentration IC50 of cells, BaF3 ETV6-NTRK3-G623R
T12 construct: fused on or other part: N-terminal part of ETV6 (TEL) as fusion partner (part of the key); P41212 (Transcription factor ETV6)
Method: as §4, with “kit. In this test, the cell lines used are Ba/F3 LMNA-NTRK1-WT, Ba/F3 LMNA-NTRK1-F589L, BaF3 LMNA-NTRK1-G595R, BaF3 LMNA-NTRK1-G667A, BaF3 ETV6-NTRK3-WT, BaF3 ETV6-NTRK3-G623R, and Ba/F3 SLC34A2-ROS1-WT stable cell strains, 5000 cells/well.” for “kit.”
as §5, §6
c) Cells in the 96-well plate were incubated overnight at 37° C. with 5% CO2 and 95% humidity.
as §7
b) The cells in the 96-well plate added with compound were incubated for 72 hours at 37° C. with 5% CO2 and 95% humidity, followed by the CTG (CellTiter-Glo) analysis.
as §8, §9, §10, §11, §12, §13

Ba/F3 SLC34A2-ROS1-WT = target: T13, Ba/F3 SLC34A2-ROS1-WT (Homo sapiens, UniProt P08922); test: as above; format: cell-based; conditions: read-out: Half maximal inhibitory concentration IC50 of cells, Ba/F3 SLC34A2-ROS1-WT
T13 construct: fused on or other part: N-terminal part of SLC34A2 as fusion partner (part of the key); O95436 (Sodium-dependent phosphate transport protein 2B)
Method: as §4, §5, §6, §7, §8, §9, §10, §11, §12, §13

[3] = male, CD-1, mouse, plasma, PO, 10 mg/kg

T2 sequence (Q16288 32-839): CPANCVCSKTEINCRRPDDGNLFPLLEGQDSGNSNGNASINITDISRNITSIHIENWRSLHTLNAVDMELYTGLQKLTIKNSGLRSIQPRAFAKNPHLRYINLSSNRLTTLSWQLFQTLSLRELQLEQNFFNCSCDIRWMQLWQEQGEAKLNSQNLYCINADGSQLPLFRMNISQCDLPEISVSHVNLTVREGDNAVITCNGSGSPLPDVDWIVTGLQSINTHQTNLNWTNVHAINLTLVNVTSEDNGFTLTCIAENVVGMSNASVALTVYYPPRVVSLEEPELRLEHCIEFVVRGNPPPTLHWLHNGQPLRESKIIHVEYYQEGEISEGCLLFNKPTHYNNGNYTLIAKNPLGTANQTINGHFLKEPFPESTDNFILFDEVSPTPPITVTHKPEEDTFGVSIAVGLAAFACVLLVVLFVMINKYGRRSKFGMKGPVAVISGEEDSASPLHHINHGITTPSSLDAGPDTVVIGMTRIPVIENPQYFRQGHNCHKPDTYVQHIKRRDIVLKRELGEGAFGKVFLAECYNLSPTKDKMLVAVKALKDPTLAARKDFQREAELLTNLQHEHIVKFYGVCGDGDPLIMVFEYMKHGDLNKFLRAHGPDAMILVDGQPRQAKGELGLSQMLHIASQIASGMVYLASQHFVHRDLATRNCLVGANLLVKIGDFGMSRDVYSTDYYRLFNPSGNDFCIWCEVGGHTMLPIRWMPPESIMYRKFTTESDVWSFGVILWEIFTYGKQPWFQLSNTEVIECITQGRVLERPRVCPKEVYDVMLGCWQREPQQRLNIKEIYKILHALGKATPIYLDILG
T1 sequence (P04629 33-796): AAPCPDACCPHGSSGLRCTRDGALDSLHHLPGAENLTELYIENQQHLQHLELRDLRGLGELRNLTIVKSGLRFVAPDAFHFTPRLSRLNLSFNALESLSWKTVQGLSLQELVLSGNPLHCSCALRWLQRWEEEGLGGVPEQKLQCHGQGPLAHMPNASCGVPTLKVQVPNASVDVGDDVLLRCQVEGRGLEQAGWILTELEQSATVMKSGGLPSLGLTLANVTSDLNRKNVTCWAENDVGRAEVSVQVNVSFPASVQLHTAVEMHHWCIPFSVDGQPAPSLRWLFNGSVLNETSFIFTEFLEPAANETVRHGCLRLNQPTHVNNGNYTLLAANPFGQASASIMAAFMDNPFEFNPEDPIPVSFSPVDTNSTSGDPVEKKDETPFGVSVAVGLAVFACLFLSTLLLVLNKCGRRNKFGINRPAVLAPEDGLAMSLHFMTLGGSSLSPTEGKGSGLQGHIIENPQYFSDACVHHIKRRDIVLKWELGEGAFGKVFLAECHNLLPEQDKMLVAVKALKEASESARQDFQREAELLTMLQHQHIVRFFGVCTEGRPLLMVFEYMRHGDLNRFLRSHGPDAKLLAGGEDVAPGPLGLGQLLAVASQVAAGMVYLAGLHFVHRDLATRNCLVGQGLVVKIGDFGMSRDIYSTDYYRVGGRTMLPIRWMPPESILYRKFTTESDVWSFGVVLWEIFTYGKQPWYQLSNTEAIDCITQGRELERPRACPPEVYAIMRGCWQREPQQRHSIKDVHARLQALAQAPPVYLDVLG
T4 sequence (P04629 33-796 G595R): as the sequence (P04629 33-796) above, with G563R counted along it
T6 sequence (P04629 33-796 G667C): as the sequence (P04629 33-796) above, with G635C counted along it
T10 sequence (P04629 whole entry G595R, the tested form may be a part): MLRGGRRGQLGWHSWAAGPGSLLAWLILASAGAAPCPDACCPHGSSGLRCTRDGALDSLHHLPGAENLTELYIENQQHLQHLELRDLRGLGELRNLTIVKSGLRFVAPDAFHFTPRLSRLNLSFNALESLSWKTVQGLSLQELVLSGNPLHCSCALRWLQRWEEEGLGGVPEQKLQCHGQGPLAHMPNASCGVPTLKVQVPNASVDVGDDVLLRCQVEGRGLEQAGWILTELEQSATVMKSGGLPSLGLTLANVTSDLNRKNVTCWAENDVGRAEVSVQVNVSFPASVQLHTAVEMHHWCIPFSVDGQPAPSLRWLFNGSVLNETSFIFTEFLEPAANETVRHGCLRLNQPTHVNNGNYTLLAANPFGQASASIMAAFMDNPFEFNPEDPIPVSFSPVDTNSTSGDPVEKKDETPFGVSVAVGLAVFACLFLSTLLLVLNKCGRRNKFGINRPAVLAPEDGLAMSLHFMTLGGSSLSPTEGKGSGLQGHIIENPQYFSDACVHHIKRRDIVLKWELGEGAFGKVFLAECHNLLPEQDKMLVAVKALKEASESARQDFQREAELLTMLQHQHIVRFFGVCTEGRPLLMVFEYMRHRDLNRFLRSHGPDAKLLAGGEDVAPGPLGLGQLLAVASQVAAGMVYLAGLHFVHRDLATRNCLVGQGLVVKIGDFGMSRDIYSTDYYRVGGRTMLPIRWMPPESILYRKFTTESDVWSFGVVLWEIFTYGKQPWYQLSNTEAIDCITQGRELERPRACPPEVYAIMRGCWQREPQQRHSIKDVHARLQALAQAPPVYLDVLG
T12 sequence (Q16288 whole entry G623R, the tested form may be a part): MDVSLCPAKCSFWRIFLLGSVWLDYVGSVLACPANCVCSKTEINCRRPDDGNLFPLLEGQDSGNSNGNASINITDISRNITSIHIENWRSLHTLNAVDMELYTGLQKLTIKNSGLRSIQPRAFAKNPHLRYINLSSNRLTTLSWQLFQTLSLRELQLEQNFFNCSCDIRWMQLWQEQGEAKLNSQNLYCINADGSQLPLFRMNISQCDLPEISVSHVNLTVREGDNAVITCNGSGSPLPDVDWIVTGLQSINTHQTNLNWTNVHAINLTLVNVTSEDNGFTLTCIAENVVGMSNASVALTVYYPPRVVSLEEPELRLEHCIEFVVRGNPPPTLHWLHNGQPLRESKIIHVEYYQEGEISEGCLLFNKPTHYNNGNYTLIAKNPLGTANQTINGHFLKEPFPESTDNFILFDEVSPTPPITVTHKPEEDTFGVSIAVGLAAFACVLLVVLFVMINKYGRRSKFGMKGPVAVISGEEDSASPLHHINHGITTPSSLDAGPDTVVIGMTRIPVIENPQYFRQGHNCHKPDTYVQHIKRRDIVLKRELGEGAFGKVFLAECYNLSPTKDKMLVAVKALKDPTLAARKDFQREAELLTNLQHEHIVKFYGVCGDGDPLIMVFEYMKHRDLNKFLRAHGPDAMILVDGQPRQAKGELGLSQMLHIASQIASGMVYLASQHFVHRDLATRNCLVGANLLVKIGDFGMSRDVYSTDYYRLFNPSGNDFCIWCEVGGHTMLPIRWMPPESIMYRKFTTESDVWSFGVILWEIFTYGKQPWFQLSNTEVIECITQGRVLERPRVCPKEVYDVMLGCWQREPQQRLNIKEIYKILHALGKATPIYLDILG

Apparent clearance Cl ([2]; IV, 3 mg/kg)	IC50 (TrkA)	IC50 (TrkC)	IC50 (ALK)	IC50 (TrkA-G595R)	IC50 (Ros1)	IC50 (TrkA-G667C)	GI50 (BaF3 LMNA-NTRK1-G667A)	GI50 (BaF3 ETV6-NTRK3-WT)	GI50 (Ba/F3 LMNA-NTRK1-WT)	GI50 (BaF3 LMNA-NTRK1-G595R)	GI50 (Ba/F3 LMNA-NTRK1-F589L)	GI50 (BaF3 ETV6-NTRK3-G623R)	GI50 (Ba/F3 SLC34A2-ROS1-WT)	SMILES	further results
–	> 1000 nM	–	–	–	–	–	–	–	–	–	–	–	–	O=C1NC2(CC2)CNc2ncc(F)cc2C2COCCN2c2ccn3ncc1c3n2 (single isomer, unassigned) [WX010B]	–
–	4.7 nM	0.1 nM	103 nM	0.3 nM	3.1 nM	0.5 nM	–	–	–	–	–	–	–	O=C1N[C@@H]2COC[C@@H]2Oc2ncc(F)cc2[C@H]2COCCN2c2ccn3ncc1c3n2 [WX005A]	–
9.78 mL/min/kg	–	–	–	–	–	–	3.8 nM	2.9 nM	0.7 nM	5.2 nM	56.6 nM	11 nM	246 nM	O=C1N[C@@H]2COC[C@@H]2Oc2ncc(F)cc2C2COCCN2c2ccn3ncc1c3n2 (stereo partly shown) [WX005A]	Vd ([2]; male, CD-1, mouse, plasma, IV, 3 mg/kg, read-out: Apparent volume of distribution Vd): 0.78 L/kg; AUC(0-t) ([2]; male, CD-1, mouse, plasma, IV, 3 mg/kg): 12 µM·h; half-life ([2]; male, CD-1, mouse, plasma, IV, 3 mg/kg, read-out: Half-life T1/2 (converted)): 61.2 min; AUC(0-t) [2, 3]: 21.4 µM·h; bioavailability ([2]; male, CD-1, mouse, plasma, PO, 10 mg/kg, read-out: Bioavailability F %): 54%; Cmax [2, 3]: 7.12 µM; Tmax ([2]; male, CD-1, mouse, plasma, PO, 10 mg/kg, read-out: Time to peak Tmax): 22.8 min

Second part, the compound before the results:

SMILES	Apparent clearance Cl ([2]; IV, 3 mg/kg)	IC50 (TrkA)	IC50 (TrkC)	IC50 (ALK)	IC50 (TrkA-G595R)	IC50 (Ros1)	IC50 (TrkA-G667C)	GI50 (BaF3 LMNA-NTRK1-G667A)	GI50 (BaF3 ETV6-NTRK3-WT)	GI50 (Ba/F3 LMNA-NTRK1-WT)	GI50 (BaF3 LMNA-NTRK1-G595R)	GI50 (Ba/F3 LMNA-NTRK1-F589L)	GI50 (BaF3 ETV6-NTRK3-G623R)	GI50 (Ba/F3 SLC34A2-ROS1-WT)	further results
C[C@H]1CNC(=O)c2cnn3ccc(nc23)N2CCOC[C@@H]2c2cc(F)cnc2O1 [WX004B]	8.14 mL/min/kg	2.7 nM	0.3 nM	134 nM	2.7 nM	8.1 nM	18.2 nM	3.9 nM	1.5 nM	0.8 nM	1.2 nM	37.4 nM	3.2 nM	–	Apparent clearance Cl ([1]; IV, 3 mg/kg): 30.9 mL/min/kg; Apparent volume of distribution Vd ([1]; IV, 3 mg/kg): 1.4 L/kg; Area under the curve AUC0-last ([1]; IV, 3 mg/kg): 4.076 µM·h; Half-life T1/2 ([1]; IV, 3 mg/kg): 36 min; Area under the curve AUC0-last ([1]; PO, 10 mg/kg): 4.715 µM·h; Bioavailability F % ([1]; PO, 10 mg/kg): 35%; Time to peak Tmax ([1]; PO, 10 mg/kg): 48 min; Cmax ([1]; PO, 10 mg/kg, read-out: Peak concentration Cmax): 1.77 µM; Apparent volume of distribution Vd ([2]; IV, 3 mg/kg): 0.60 L/kg; Area under the curve AUC0-last ([2]; IV, 3 mg/kg): 15.393 µM·h; Half-life T1/2 ([2]; IV, 3 mg/kg): 63 min; Area under the curve AUC0-last ([2]; PO, 10 mg/kg): 37.294 µM·h; Bioavailability F % ([2]; PO, 10 mg/kg): 73%; Time to peak Tmax ([2]; PO, 10 mg/kg): 30 min; Cmax ([2]; PO, 10 mg/kg): 11.1 µM
C[C@H]1CNC(=O)c2cnn3ccc(nc23)N2CCOC[C@H]2c2cc(F)cnc2O1 [WX004A]	–	441 nM	–	–	–	–	–	–	–	–	–	–	–	–	–
O=C1NC2(CC2)COc2ccc(F)cc2C2CCCCN2c2ccn3ncc1c3n2 (single isomer, unassigned) [WX002A]	–	3.2 nM	0.2 nM	18.5 nM	2.1 nM	0.2 nM	0.7 nM	–	–	0.2 nM	0.4 nM	–	5.8 nM	12.6 nM	–
